Laboratory results taken from patent US12391679B2, “Benzamide-substituted bicyclic imidazo- and pyrazolo-fused -pyridine, -pyrimide, and -pyridazine compounds for treatment of inflammatory diseases” (ONCO3R Therapeutics BV, priority 2019, dated 2025).

How the values were obtained:
SIK1 = biological target: T1, SIK1 (Homo sapiens, UniProt P57059); test: ADP-Glo kinase assay, SIK1; type: biochemical
T1 construct: purchased Carna Biosciences 02-131
Procedure, shortened: (§1)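 Each SIK isoform is incubated with substrate and ATP for 2 h at room temperature, after which residual ATP is depleted and the ADP formed is quantified by luminescence.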

SIK2 = biological target: T2, SIK2 (Homo sapiens, UniProt Q9H0K1); test: ADP-Glo kinase assay, SIK2; type: biochemical
T2 construct: purchased ThermoFisher Scientific PV4792
T2 sequence (Q9H0K1 whole entry): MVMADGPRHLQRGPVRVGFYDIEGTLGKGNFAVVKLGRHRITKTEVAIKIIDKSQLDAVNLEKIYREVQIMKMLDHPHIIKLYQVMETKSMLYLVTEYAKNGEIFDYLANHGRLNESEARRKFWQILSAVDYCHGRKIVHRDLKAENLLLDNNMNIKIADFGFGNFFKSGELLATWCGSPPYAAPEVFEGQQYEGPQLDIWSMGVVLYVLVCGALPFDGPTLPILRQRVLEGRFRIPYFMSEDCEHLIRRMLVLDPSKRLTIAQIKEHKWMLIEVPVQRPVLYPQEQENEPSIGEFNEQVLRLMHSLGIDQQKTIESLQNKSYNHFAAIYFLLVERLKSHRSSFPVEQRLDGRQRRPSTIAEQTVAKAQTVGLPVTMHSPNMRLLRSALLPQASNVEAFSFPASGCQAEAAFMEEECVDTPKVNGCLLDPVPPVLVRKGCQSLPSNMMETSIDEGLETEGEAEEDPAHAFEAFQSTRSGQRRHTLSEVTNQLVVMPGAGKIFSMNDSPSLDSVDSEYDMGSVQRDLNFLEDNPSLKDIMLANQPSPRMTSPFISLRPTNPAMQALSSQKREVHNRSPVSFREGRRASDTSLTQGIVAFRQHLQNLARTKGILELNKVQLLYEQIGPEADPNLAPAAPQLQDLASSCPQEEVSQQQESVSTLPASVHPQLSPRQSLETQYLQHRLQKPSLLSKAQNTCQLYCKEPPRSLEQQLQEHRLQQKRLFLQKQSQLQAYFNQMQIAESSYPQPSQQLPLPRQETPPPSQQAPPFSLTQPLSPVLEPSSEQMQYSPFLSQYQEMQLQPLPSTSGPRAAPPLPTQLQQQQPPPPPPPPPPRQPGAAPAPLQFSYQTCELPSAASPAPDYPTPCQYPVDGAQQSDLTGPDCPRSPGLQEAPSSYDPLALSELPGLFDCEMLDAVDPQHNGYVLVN
Procedure, shortened: as §1

SIK3 = biological target: T3, SIK3 (Homo sapiens, UniProt Q9Y2K2); test: ADP-Glo kinase assay, SIK3; type: biochemical
T3 construct: purchased SignalChem S12-11G-100
T3 sequence (Q9Y2K2 59-365 limits assumed): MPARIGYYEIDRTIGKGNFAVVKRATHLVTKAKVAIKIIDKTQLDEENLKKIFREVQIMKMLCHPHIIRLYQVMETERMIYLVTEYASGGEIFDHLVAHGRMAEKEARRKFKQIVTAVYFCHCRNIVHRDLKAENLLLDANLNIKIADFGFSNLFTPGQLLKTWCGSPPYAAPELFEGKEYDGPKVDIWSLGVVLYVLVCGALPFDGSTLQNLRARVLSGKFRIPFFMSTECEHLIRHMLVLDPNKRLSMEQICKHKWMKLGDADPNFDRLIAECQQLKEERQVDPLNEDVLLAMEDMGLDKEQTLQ
Procedure, shortened: as §1

[1] = tested on: LPS-induced TNFα in monocyte-derived macrophages; test: MdM assay: LPS-triggered TNFα (ELISA); type: cell-based, human; conditions: Macrophage; human MdM; LPS 200 ng/mL; supernatant after 20 h; inhibition of TNFα; read-out: TNFα EC50
Protocol: This assay evaluates illustrative compounds of the invention for their inhibition of LPS-induced TNFα and LPS triggered IL-10 secretion in monocyte-derived macrophages. PBMCs are isolated from human blood samples (buffycoats). The buffy coat is aseptically transferred into a 50 mL Falcon tube, and diluted 1/2 in PBS. Falcon tubes are filled with 20 mL LymphoprepTM, on top of which 25 mL of the buffy coat is carefully added, tubes are centrifuged for 35 min at 400 g in temperature controlled centrifuge, without brake, at 25° C. PBMCs are aspirated from the white interface layer between sample and LymphoprepTM. PBMCs are washed five times in PBS. […] PBMCs are centrifuged at 300×g for 10 min and resuspended at a density of 1.0*10^7 cells/80 μL Miltenyi buffer (PBS, pH 7.4, 1% FBS, 2 mM EDTA). Starting from this point of the protocol all steps are performed on ice. 20 μL of CD14+ micro-beads are added per 1.0*10^7 cells, the tube is mixed and incubated for 15 min in the fridge at 4° C. Cell suspension volume is adjusted to total volume of 100 mL using Miltenyi buffer, mixed gently and subsequently centrifuged for 10 min at 300×g. Supernatant is discarded and cell pellet is resuspended in 12 mL of Miltenyi buffer. Four LS columns are placed in the MACS Separator (magnet) from Miltenyi Biotec, and are prewet by rinsing with 3 mL of MACS buffer per column. Three mL of cell suspension is added onto the column (max 1*10^8 of labelled cells/column), and columns are subsequently washed 3 times with 3 mL of Miltenyi buffer. The columns are removed from the magnets, and 5 mL of Miltenyi buffer are added to the column to flush out the CD14+ fraction by pushing the plunger into the column. The flushed fractions are collected in a fresh 50 mL Falcon and volume is adjusted to 30 mL using Miltenyi buffer, cells are centrifuged for 10 min at 300×g. The obtained cell pellet is resuspended in 10 mL RPMI w/o FBS, and cell density is determined using a hematologic analyser (Sysmex XS-500i). […] On day 10, MdMs are triggered and compound is added. A compound dilution plate is made in 100% DMSO by 3-fold dilution of 10 mM stock solution. An intermediate dilution plate (10× final concentration) is made by diluting the compound dilution plate […] in RPMI medium. Medium is carefully removed from cell plates using multichannel pipette, and replaced by 80 μL fresh medium. 10 μL of the 10× final concentration compound is added to the cells and incubated for 1 hour at 37° C. before addition of trigger. No trigger conditions/trigger conditions are spiked with equal final DMSO concentrations of 0.2% DMSO. 10 μL of 10×LPS (final conc. 200 ng/mL) solution are added to all wells except for the 'no trigger wells' where 10 μL medium is added. Supernatant is collected after 2 h (IL-10 determination) and after 20 h (TNFα determination) of LPS triggering. […] The plate is then washed once with PBST (PBS+0.05% Tween20) and once with PBS followed by the addition of 100 μL of blocking buffer (1% Bovine Serum Albumin (BSA) -5% Sucrose) and plates are sealed and incubated for at least 4 h at RT. After washing the plate once with PBST and once with PBS, 40 μL of standard or sample are added (TNFα standard curve is prepared using a 1/2 serial dilution starting from 16000 pg/mL; dilutions are made in dilution buffer (PBS+1% BSA)). Plates are washed twice with PBST, and once with PBS, after which 35 μL of the detection antibody is added (final concentration 0.25 μg/mL diluted in dilution buffer) and plates are incubated for at least 2 h at RT. Plates are washed twice with PBST, and once with PBS, where after 35 μL of Strep-HRP conjugate (0.5 μg/mL final concentration diluted in dilution buffer) is added. […] Plates are washed twice with PBST, and once with PBS. Thereafter, 50 μL of luminol substrate is added to each well (prepared according to manufacturer's instructions), and incubated for 5 min at RT protected from light.

[2] = tested on: LPS-induced TNFα in monocytes; test: Monocytes assay: LPS-triggered TNFα (ELISA); type: cell-based, human; conditions: Homo sapiens, Monocyte, LPS-triggered TNFα inhibition
Protocol: This assay evaluates illustrative compounds of the invention for their inhibition of LPS-induced TNFα and LPS triggered IL-10 secretion in monocytes.
PBMCs are isolated from human blood samples (buffycoats). The buffy coat is aseptically transferred into a 50 mL Falcon tube, and diluted 1/2 in PBS. Falcon tubes are filled with 20 mL Lymphoprep™, on top of which 25 mL of the buffy coat is carefully added, tubes are centrifuged for 35 min at 400 g in temperature controlled centrifuge, without brake, at 25° C. PBMCs are aspirated from the white interface layer between sample and Lymphoprep™. PBMCs are washed five times in PBS.
PBMCs are centrifuged at 300×g for 10 min and resuspended at a density of 1.0*10^7 cells/80 μL Miltenyi buffer (PBS, pH 7.4, 1% FBS, 2 mM EDTA).
Starting from this point of the protocol all steps are performed on ice. 20 μL of CD14+ micro-beads are added per 1.0*10^7 cells, the tube is mixed and incubated for 15 min in the fridge at 4° C. Cell suspension volume is adjusted to total volume of 100 mL using Miltenyi buffer, mixed gently and subsequently centrifuged for 10 min at 300×g. Supernatant is discarded and cell pellet is resuspended in 12 mL of Miltenyi buffer.
Four LS columns are placed in the MACS Separator (magnet) from Miltenyi Biotec, and are prewet by rinsing with 3 mL of MACS buffer per column. Three mL of cell suspension is added onto the column (max 1*10^8 of labelled cells/column), and columns are subsequently washed 3 times with 3 mL of Miltenyi buffer.
The columns are removed from the magnets, and 5 mL of Miltenyi buffer are added to the column to flush out the CD14+ fraction by pushing the plunger into the column. The flushed fractions are collected in a fresh 50 mL Falcon and volume is adjusted to 30 mL using Miltenyi buffer, cells are centrifuged for 10 min at 300×g. The obtained cell pellet is resuspended in 10 mL RPMI w/o FBS, and cell density is determined using a hematologic analyser (Sysmex XS-500i).
A compound dilution plate is made in 100% DMSO by 3-fold dilution of 10 mM stock solution. An intermediate dilution plate (10× final concentration) is made by diluting the compound dilution plate 50-fold in RPMI medium.
10 μL of the 10× final concentration compound is added to the cells and incubated for 1 h at 37° C. before addition of trigger. No trigger conditions/trigger conditions are spiked with equal final DMSO concentrations of 0.2% DMSO. 10 μL of 10×LPS (final conc. 200 ng/mL) solution are added to all wells except for the ‘no trigger wells’ where 10 μL medium is added. Supernatant is collected after 4 h of LPS triggering.
The plate is then washed once with PBST (PBS+0.05% Tween20) and once with PBS followed by the addition of 100 μL of blocking buffer (1% Bovine Serum Albumin (BSA)-5% Sucrose) and plates are sealed and incubated for at least 4 h at RT. After washing the plate once with PBST and once with PBS, […]. Plates are washed twice with PBST, and once with PBS, after which 35 μL of the detection antibody is added (final concentration 0.25 μg/mL diluted in dilution buffer) and plates are incubated for at least 2 h at RT. Plates are washed twice with PBST, and once with PBS, whereafter 35 μL of Strep-HRP conjugate (0.5 μg/mL final concentration diluted in dilution buffer) is added. Plates are incubated in the dark, at RT for at least 45 min but no longer than 1 h. Plates are washed twice with PBST, and once with PBS. Thereafter, 50 μL of luminol substrate is added to each well (prepared according to manufacturer's instructions), and incubated for 5 min at RT protected from light.
To measure the inhibition of LPS induced TNFα, percentage inhibition (PIN) values are calculated for all concentrations tested, compared to controls.

T1 sequence (P57059 whole entry): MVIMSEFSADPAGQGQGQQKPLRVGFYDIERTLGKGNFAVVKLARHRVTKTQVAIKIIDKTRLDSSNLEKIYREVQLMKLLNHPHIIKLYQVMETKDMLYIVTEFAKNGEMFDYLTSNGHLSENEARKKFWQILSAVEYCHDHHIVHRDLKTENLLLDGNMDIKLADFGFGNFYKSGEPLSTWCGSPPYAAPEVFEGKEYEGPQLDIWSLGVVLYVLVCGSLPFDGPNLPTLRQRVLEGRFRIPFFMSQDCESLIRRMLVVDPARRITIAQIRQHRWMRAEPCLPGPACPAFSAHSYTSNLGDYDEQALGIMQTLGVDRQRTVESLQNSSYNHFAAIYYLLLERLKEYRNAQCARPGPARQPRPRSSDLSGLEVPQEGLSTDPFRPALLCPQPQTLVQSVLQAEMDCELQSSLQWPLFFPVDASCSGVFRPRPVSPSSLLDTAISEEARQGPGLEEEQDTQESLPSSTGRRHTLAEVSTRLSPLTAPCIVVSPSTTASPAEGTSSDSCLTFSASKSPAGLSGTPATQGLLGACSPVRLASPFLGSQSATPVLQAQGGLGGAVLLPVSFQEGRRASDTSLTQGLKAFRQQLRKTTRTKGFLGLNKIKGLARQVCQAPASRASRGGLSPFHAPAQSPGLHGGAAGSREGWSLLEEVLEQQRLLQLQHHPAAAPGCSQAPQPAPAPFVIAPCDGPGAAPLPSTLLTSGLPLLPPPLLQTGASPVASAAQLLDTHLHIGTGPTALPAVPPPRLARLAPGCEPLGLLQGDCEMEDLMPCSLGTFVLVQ

Row | Structure (SMILES) | IC50 (SIK1) [nM] | IC50 (SIK2) [nM] | IC50 (SIK3) [nM] | EC50 [1] [nM] | EC50 [2] [nM]
1 | COc1cc(-c2cnc3cc(C4CCN(C)CC4)ccn23)cc(OC(F)F)c1C(=O)NC1CC1 [Cpd 68, N-cyclopropyl-2-(difluoromethoxy)-6-methoxy-4-[7-(1-methyl-4-piperidyl)imidazo[1,2-a]pyridin-3-yl]benzamide] | > 500 | 10 to 100 | 0.01 to 10 | 1000 to 5000 | –
2 | COc1cc(-c2cnc3cc(C4(C#N)CCCC4)ccn23)cc(OC(F)F)c1C(=O)NC1CC1 [Cpd 53, 4-[7-(1-cyanocyclopentyl)imidazo[1,2-a]pyridin-3-yl]-N-cyclopropyl-2-(difluoromethoxy)-6-methoxy-benzamide] | > 500 | > 500 | 0.01 to 10 | 100 to 1000 | –
3 | COc1cc(-c2cnn3cc(C4(C#N)CCC4)ccc23)cc(OC(F)F)c1C(=O)N[C@@H]1C[C@@H]1F [Cpd 250, 4-[6-(1-cyanocyclobutyl)pyrazolo[1,5-a]pyridin-3-yl]-2-(difluoromethoxy)-N-[(1R,2S)-2-fluorocyclopropyl]-6-methoxy-benzamide] | > 500 | 100 to 500 | 0.01 to 10 | – | 100 to 1000
4 | COc1cc(-c2cnn3cc(C(C)(C)c4nc(C)no4)ccc23)cc(OC(F)F)c1C(=O)NC1CC1 [Cpd 248, N-cyclopropyl-2-(difluoromethoxy)-6-methoxy-4-[6-[1-methyl-1-(3-methyl-1,2,4-oxadiazol-5-yl)ethyl]pyrazolo[1,5-a]pyridin-3-yl]benzamide] | > 500 | > 500 | 10 to 100 | – | 100 to 1000
5 | COc1cc(-c2cnn3cc(C(C)(C)COCC(=O)N(C)C)ccc23)cc(OC(F)F)c1C(=O)N[C@@H]1C[C@@H]1F [Cpd 251, 2-(difluoromethoxy)-4-[6-[2-[2-(dimethylamino)-2-oxo-ethoxy]-1,1-dimethyl-ethyl]pyrazolo[1,5-a]pyridin-3-yl]-N-[(1R,2S)-2-fluorocyclopropyl]-6-methoxy-benzamide] | > 500 | > 500 | 0.01 to 10 | – | 100 to 1000
6 | COc1cc(-c2cnc3cc(C(C)(O)CN4CCCCC4)ccn23)cc(OC(F)F)c1C(=O)NC1CC1 (stereo not shown) [Cpd 185, N-cyclopropyl-2-(difluoromethoxy)-4-[7-[1-hydroxy-1-methyl-2-(1-piperidyl)ethyl]imidazo[1,2-a]pyridin-3-yl]-6-methoxy-benzamide] | > 500 | > 500 | 10 to 100 | – | 100 to 1000
7 | COc1cc(-c2cnn3cc(C(C)(C)COCC4COC4)ccc23)cc(OC(F)F)c1C(=O)N[C@@H]1C[C@@H]1F [Cpd 262, 2-(difluoromethoxy)-4-[6-[1,1-dimethyl-2-(oxetan-3-ylmethoxy)ethyl]pyrazolo[1,5-a]pyridin-3-yl]-N-[(1R,2S)-2-fluorocyclopropyl]-6-methoxy-benzamide] | > 500 | > 500 | 0.01 to 10 | – | 100 to 1000
8 | COc1cc(-c2cnc3cc(C4CCCN4)ccn23)cc(OC(F)F)c1C(=O)NC1CC1 (stereo not shown) [Cpd 188, N-cyclopropyl-2-(difluoromethoxy)-6-methoxy-4-(7-pyrrolidin-2-ylimidazo[1,2-a]pyridin-3-yl)benzamide] | > 500 | 100 to 500 | 10 to 100 | – | 100 to 1000
9 | COc1cc(-c2cnc3cc(C4(OC)COC4)ccn23)cc(OC(F)F)c1C(=O)NC1CC1 [Cpd 212, N-cyclopropyl-2-(difluoromethoxy)-6-methoxy-4-[7-(3-methoxyoxetan-3-yl)imidazo[1,2-a]pyridin-3-yl]benzamide] | > 500 | > 500 | 10 to 100 | – | 100 to 1000
10 | COc1cc(-c2cnc3cc(C(C)(C)C#N)c(OCCO)cn23)cc(OC(F)F)c1C(=O)NC1CC1 [Cpd 221, 4-[7-(1-cyano-1-methyl-ethyl)-6-(2-hydroxyethoxy)imidazo[1,2-a]pyridin-3-yl]-N-cyclopropyl-2-(difluoromethoxy)-6-methoxy-benzamide] | > 500 | > 500 | 10 to 100 | – | 100 to 1000
